{
  "source": "patent US20090124631A1",
  "about": "“Combination Therapy” (priority 2007, published 2009)",
  "key": {"[1]": {"tested_on": "histone H3 acetylation in human bladder carcinoma T24 cells", "assay": "Cell-based ELISA for H3 acetylation", "protocol": "Bladder carcinoma T24 cells were seeded in black plates with clear bottoms (Costar #3603) at 1×10^4 cells per well in a volume of 100 μl per well, and were allowed to settle for one day at 37° C. in a CO2 incubator. The cells were treated for 16 h with various concentrations of HDAC inhibitors. 3 h before the end of the treatment, Alamar Blue (BioSource) was added to monitor cell viability according to the manufacturer's instructions. At the end of the treatment time, Alamar Blue OD (at 570 nm and 600 nm) was recorded, then the cells were carefully washed in PBS, fixed in pre-chilled methanol for 10 min at −20° C., washed again twice in PBS, and blocked in PBS containing 0.1% Triton X-100 and 1% BSA for a minimum of 30 min. For H3 acetylation, rabbit-anti-acetyl-H3 (Upstate #06-599) was used as primary antibody at a dilution of 1:1000 for 45 min; the secondary antibody was HRP-coupled goat-anti-rabbit (Sigma #A-0545), used at 1:8000 for 45 min. For tubulin acetylation, the primary antibody was mouse anti-acetyl-tubulin (Sigma #T-6793, 1:2000, 45 min) while the secondary was HRP-coupled goat-anti-mouse antibody (Sigma #A-2304, 1:8000, 45 min). All antibodies were diluted in blocking buffer, and the cells were washed in blocking buffer following each antibody incubation. […] The fluorescent signal for acetylation was normalized by dividing with the viability data obtained from Alamar Blue. EC50 was defined as the concentration of compound which gave a signal half-way between the basal (untreated) level and the maximum level generated by high doses of the HDAC pan-inhibitor NVP-LAQ-824."}, "[2]": {"tested_on": "VEGF expression in DU145 cells", "assay": "VEGF transcription in Du145 cells in vitro", "format": "cell-based, human", "settings": "24 hour treatment", "protocol": "Human prostate cancer Du145 cells were exposed to Cpd A or SAHA (3 microM) for 24 hours. Total RNA was collected by Isogen (Nippongene, Tokyo, Japan) and reverse-transcribed to cDNA by ExScript® RT reagent Kit (TAKARA, Kyoto, Japan). The expression level of bFGF mRNA was detected by ABI7700 analyzer using probe/primer pre-mixture reagent (ABI, Cat# Hs00266645_m1, CA, USA) and TaqMan® Universal PCR Master Mix (ABI, Cat# 430-4437) as described in the ABI's protocol. The expression level of VEGF mRNA was detected in a similar manner using the appropriate probe/primer reagents."}, "[3]": {"tested_on": "co-cultured human endothelial cells", "assay": "Human multicellular angiogenesis model (AngioKit)", "format": "cell-based", "settings": "AngioKit, 30, 100 and 300 nM", "protocol": "Briefly, 24 well plates were seeded with cells on day 0 and medium was changed on days 3, 4, 7, 10 and 12. […] All AngioKits were then fixed and stained on day 14, using the CD31 Staining Kits according to the standard AngioKit procedure. Comparison of tubule development was conducted using the “AngioSys” image analysis system developed specifically for the analysis of images produced using the AngioKit. Four images taken from predetermined positions within each well were recorded. Each concentration of test compound therefore yielded […] for analysis in duplicate. Images were always taken from as close to the centre of each quadrant as possible. Four tubule parameters were measured: total tubule length, total tubule area, number of branch points and number of tubules formed. All statistical analyses were carried out using the Stat 100 programme from BIOSOFT Ltd. using ANOVA and Duncan's Multiple Comparison Test to measure differences between the test compounds with the untreated control values. Alpha was always 0.05 unless otherwise stipulated."}},
  "data": [
    {"smiles": "Nc1ccccc1NC(=O)c1ccc(CNc2nccc(-c3cccnc3)n2)cc1", "note": "[Compound A]", "values": [
      {"measurement": "histone H3 acetylation", "setting": "[1]", "result": "dose-dependent induction"},
      {"measurement": "VEGF expression", "setting": "[2]", "result": "suppression"},
      {"measurement": "tubule length", "setting": "[3]", "result": "inhibits"}
    ]}
  ]
}
